# Biological target: T1, Aurora kinase A (AURKA) (Homo sapiens, UniProt O14965)
# T1 construct: endogenous in cells; host or cells: HeLa LgBit (AURKA-HiBit KI), CRISPR/Cas9 knock-in at the endogenous AURKA locus
# T1 sequence (O14965 1-403): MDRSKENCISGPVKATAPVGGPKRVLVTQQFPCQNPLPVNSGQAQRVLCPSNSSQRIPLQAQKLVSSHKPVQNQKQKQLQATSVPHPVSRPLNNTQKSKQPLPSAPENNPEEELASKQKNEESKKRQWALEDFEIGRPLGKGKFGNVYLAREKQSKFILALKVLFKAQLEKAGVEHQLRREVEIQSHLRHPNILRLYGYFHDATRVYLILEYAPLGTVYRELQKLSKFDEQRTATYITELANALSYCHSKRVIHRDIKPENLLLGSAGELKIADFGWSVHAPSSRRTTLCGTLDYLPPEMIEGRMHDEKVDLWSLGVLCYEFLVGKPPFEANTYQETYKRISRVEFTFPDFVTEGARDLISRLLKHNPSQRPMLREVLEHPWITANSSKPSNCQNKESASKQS
# Experiment: Luciferase assay for AURKA in HeLa LgBit (AURKA-HiBit KI) cell line
# Type: cell-based
# Details: HeLa LgBit (AURKA-HiBit KI) cells, measured after 12 hours
# Excerpt: HeLa cell lines that stably express LgBit were constructed via LgBit vector transfection. Then, donor DNA and guide RNA for insertion of HiBit amino acid sequence at C-terminus of inherent Aurora kinase A (AURKA) genes were designed and constructed. Thereafter, they were transfected into the cell lines with CRISPR/Cas9 expression vector system. HiBit gene knock-in single cells were selected, passaged and used for the experiments.
# For cell culture, DMEM (Gibco, Cat. No. 11995-065; Lot. No. 2562497), FBS (Gibco, Cat. No. 16000-044; Lot. No. 2511328P), Penicillin/Streptomycin (PS) (Gibco, Cat. No. 15140-122; Lot. No. 2585636), 90 mm^2 cell culture dish (SPL, Cat. No. 20100), 96-well white plate, PBS pH 7.4 (Gibco, […]), TrypLE™ Express (Gibco, Cat. No. 12605-010; Lot. No. 2522525), counting chamber (hematocytometer) (Hirschmann, Cat. No. 8100204; Lot. No. 8021087) and 0.4% Trypan Blue solution (DYNEBIO, Cat. No. CBT3710; Lot. No. 20231017) were used. Cells were cultured in DMEM supplemented with 10% FBS and 1% PS and incubated in CO2 incubator (Thermo, Cat. No. 4111) at 37° C., 5% CO2 condition.
# HeLa LgBit (AURKA-HiBit KI) cell lines were cultured in 90 mm^2 cell culture dish, and 3×10^4 cells in […] of total medium volume were seeded and incubated for 18 hours in CO2 incubator. Then, Eudurazine (Promega, Cat. No. N247B; Lot. No. 495218) was added to each well to make up 1% of the total volume, followed by further incubation for 2 hours in CO2 incubator.
# The present compounds were fully dissolved in DMSO (Sigma-Aldrich Cat. No. D2438, Lot. No. RNBL7287) and 10 nM or 100 nM of total concentration were used in the experiment. After adding the compounds in each well of 96-well white plate, the plate was placed in the plate reader (BMG Labtech, CLARIOstar Plus) for real-time analysis. The wavelength for analysis was set to […], and the luminescence value was measured after 12 hours. The luminescence value was analyzed through an Excel program.
compound,measurement,setting,value
"O=C1CCC(Nc2ccc(N3CC4CN(CC5CN(C(=O)c6ccc(Nc7ncc(F)c(Nc8ccc(C(=O)Nc9ccccc9Cl)cc8)n7)cc6)C5)CC4C3)cc2)C(=O)N1 (centres unmarked) [Compound 34, N-(2-chlorophenyl)-4-((2-((4-(3-((5-(4-((2,6-dioxopiperidin-3-yl)amino)phenyl)hexahydropyrrolo[3,4-c]pyrrol-2(1H)-yl)methyl)azetidine-1-carbonyl)phenyl)amino)-5-fluoropyrimidin-4-yl)amino)benzamide]",luminescence value (Level),10 nM compound,B (B is 0.3 to 0.5)
same,luminescence value (Level),100 nM compound,A (A is <0.2)
"O=C1CCC(Nc2ccc(N3CCN(C[C@@H]4[C@H]5CN(C(=O)c6ccc(Nc7ncc(F)c(Nc8ccc(C(=O)Nc9ccccc9Cl)cc8)n7)cc6)C[C@@H]45)CC3)cc2)C(=O)N1 (stereo partly drawn) [Compound 37, N-(2-chlorophenyl)-4-((2-((4-((1R,5S,6s)-6-((4-(4-((2,6-dioxopiperidin-3-yl)amino)phenyl)piperazin-1-yl)methyl)-3-azabicyclo[3.1.0]hexane-3-carbonyl)phenyl)amino)-5-fluoropyrimidin-4-yl)amino)benzamide]",luminescence value (Level),10 nM compound,B (B is 0.3 to 0.5)
same,luminescence value (Level),100 nM compound,B (B is 0.2 to 0.4)
"O=C1CCC(Nc2ccc(N3CCCN(C[C@H]4CC[C@H](NC(=O)c5ccc(Nc6ncc(F)c(Nc7ccc(C(=O)Nc8ccccc8Cl)cc7)n6)cc5)CC4)CC3)cc2)C(=O)N1 (some centres unmarked) [Compound 39, N-(2-chlorophenyl)-4-((2-((4-(((1r,4r)-4-((4-(4-((2,6-dioxopiperidin-3-yl)amino)phenyl)-1,4-diazepan-1-yl)methyl)cyclohexyl)carbamoyl)phenyl)amino)-5-fluoropyrimidin-4-yl)amino)benzamide]",luminescence value (Level),10 nM compound,B (B is 0.3 to 0.5)
same,luminescence value (Level),100 nM compound,A (A is <0.2)
"O=C1CCC(Nc2ccc(N3CCC(CN4C[C@@H]5[C@H](C4)[C@H]5NC(=O)c4ccc(Nc5ncc(F)c(Nc6ccc(C(=O)Nc7ccccc7Cl)cc6)n5)cc4)CC3)cc2)C(=O)N1 (stereo partly drawn) [Compound 40, N-(2-chlorophenyl)-4-((2-((4-(((1R,5S,6s)-3-((1-(4-((2,6-dioxopiperidin-3-yl)amino)phenyl)piperidin-4-yl)methyl)-3-azabicyclo[3.1.0]hexan-6-yl)carbamoyl)phenyl)amino)-5-fluoropyrimidin-4-yl)amino)benzamide]",luminescence value (Level),10 nM compound,B (B is 0.3 to 0.5)
same,luminescence value (Level),100 nM compound,A (A is <0.2)
"O=C1CCC(Nc2ccc(N3CCC(CN4C[C@H]5C[C@H](NC(=O)c6ccc(Nc7ncc(F)c(Nc8ccc(C(=O)Nc9ccccc9Cl)cc8)n7)cc6)C[C@H]5C4)CC3)cc2)C(=O)N1 (stereo partly drawn) [Compound 41, N-(2-chlorophenyl)-4-((2-((4-(((3aR,5s,6aS)-2-((1-(4-((2,6-dioxopiperidin-3-yl)amino)phenyl)piperidin-4-yl)methyl)octahydrocyclopenta[c]pyrrol-5-yl)carbamoyl)phenyl)amino)-5-fluoropyrimidin-4-yl)amino)benzamide]",luminescence value (Level),10 nM compound,B (B is 0.3 to 0.5)
same,luminescence value (Level),100 nM compound,B (B is 0.2 to 0.4)
"O=C1CCC(Nc2ccc(N3CC4(CN(CC5CCN(C(=O)c6ccc(Nc7ncc(F)c(Nc8ccc(C(=O)Nc9ccccc9Cl)cc8)n7)cc6)CC5)C4)C3)cc2)C(=O)N1 (centres unmarked) [Compound 42, N-(2-chlorophenyl)-4-((2-((4-(4-((6-(4-((2,6-dioxopiperidin-3-yl)amino)phenyl)-2,6-diazaspiro[3.3]heptan-2-yl)methyl)piperidine-1-carbonyl)phenyl)amino)-5-fluoropyrimidin-4-yl)amino)benzamide]",luminescence value (Level),10 nM compound,B (B is 0.3 to 0.5)
same,luminescence value (Level),100 nM compound,A (A is <0.2)
"O=C1CCC(NC(=O)c2ccc(N3CCC(CN4CCN(C(=O)Cc5ccc(Nc6ncc(F)c(Nc7ccc(C(=O)Nc8ccccc8Cl)cc7)n6)cc5)CC4)CC3)cc2)C(=O)N1 (centres unmarked) [Compound 46, N-(2-chlorophenyl)-4-((2-((4-(2-(4-((1-(4-((2,6-dioxopiperidin-3-yl)carbamoyl)phenyl)piperidin-4-yl)methyl)piperazin-1-yl)-2-oxoethyl)phenyl)amino)-5-fluoropyrimidin-4-yl)amino)benzamide]",luminescence value (Level),10 nM compound,C (C is 0.5 to 0.7)
same,luminescence value (Level),100 nM compound,B (B is 0.2 to 0.4)
"O=C1CCC(NC(=O)c2cccc(N3CCC(CN4CCN(C(=O)Cc5ccc(Nc6ncc(F)c(Nc7ccc(C(=O)Nc8ccccc8Cl)cc7)n6)cc5)CC4)CC3)c2)C(=O)N1 (centres unmarked) [Compound 47, 3-(4-((4-(2-(4-((4-((4-((2-chlorophenyl)carbamoyl)phenyl)amino)-5-fluoropyrimidin-2-yl)amino)phenyl)acetyl)piperazin-1-yl)methyl)piperidin-1-yl)-N-(2,6-dioxopiperidin-3-yl)benzamide]",luminescence value (Level),10 nM compound,D (D is 0.7 to 0.8)
same,luminescence value (Level),100 nM compound,B (B is 0.2 to 0.4)
"O=C1CCN(c2ccc(N3CCN(CCC4CCN(NC(=O)c5ccc(Nc6ncc(F)c(Nc7ccc(C(=O)Nc8ccccc8Cl)cc7)n6)cc5)CC4)CC3)cc2)C(=O)N1 [Compound 54, N-(2-chlorophenyl)-4-[[2-[4-[[4-[2-[4-[4-(2,4-dioxohexahydropyrimidin-1-yl)phenyl]piperazin-1-yl]ethyl]-1-piperidyl]carbamoyl]anilino]-5-fluoro-pyrimidin-4-yl]amino]benzamide]",luminescence value (Level),10 nM compound,B (B is 0.3 to 0.5)
same,luminescence value (Level),100 nM compound,B (B is 0.2 to 0.4)
"Cc1cc(Nc2nc(Nc3ccc(C(=O)NN4CCC(CCN5CCN(c6ccc(C7CCC(=O)NC7=O)cc6)CC5)CC4)cc3)ncc2F)n[nH]1 (centres unmarked) [Compound 59, N-(4-(2-(4-(4-(2,6-dioxopiperidin-3-yl)phenyl)piperazin-1-yl)ethyl)piperidin-1-yl)-4-((5-fluoro-4-((5-methyl-1H-pyrazol-3-yl)amino)pyrimidin-2-yl)amino)benzamide]",luminescence value (Level),10 nM compound,C (C is 0.5 to 0.7)
same,luminescence value (Level),100 nM compound,A (A is <0.2)
"O=C1CCC(c2ccc(N3CCC4(CC3)CC(C3CCN(NC(=O)c5ccc(Nc6ncc(F)c(Nc7ccc(C(=O)Nc8ccccc8Cl)cc7)n6)cc5)CC3)C4)cc2)C(=O)N1 (centres unmarked) [Compound 60, N-(2-chlorophenyl)-4-((2-((4-((4-(7-(4-(2,6-dioxopiperidin-3-yl)phenyl)-7-azaspiro[3.5]nonan-2-yl)piperidin-1-yl)carbamoyl)phenyl)amino)-5-fluoropyrimidin-4-yl)amino)benzamide]",luminescence value (Level),10 nM compound,D (D is 0.7 to 0.8)
same,luminescence value (Level),100 nM compound,B (B is 0.2 to 0.4)
"O=C1CCC(c2ccc(N3CCN(CCC4CCN(NC(=O)c5ccc(Nc6ncc(F)c(Nc7cc(C8CC8)[nH]n7)n6)cc5)CC4)CC3)cc2)C(=O)N1 (centres unmarked) [Compound 61, 4-((4-((5-cyclopropyl-1H-pyrazol-3-yl)amino)-5-fluoropyrimidin-2-yl)amino)-N-(4-(2-(4-(4-(2,6-dioxopiperidin-3-yl)phenyl)piperazin-1-yl)ethyl)piperidin-1-yl)benzamide]",luminescence value (Level),10 nM compound,C (C is 0.5 to 0.7)
same,luminescence value (Level),100 nM compound,A (A is <0.2)
"O=C1CCC(c2ccc(N3CCC(CN4CCC(CNC(=O)c5ccc(Nc6ncc(F)c(Nc7ccc(C(=O)Nc8ccccc8Cl)cc7)n6)cc5)CC4)CC3)cc2)C(=O)N1 (centres unmarked) [Compound 62, N-(2-chlorophenyl)-4-((2-((4-(((1-((1-(4-(2,6-dioxopiperidin-3-yl)phenyl)piperidin-4-yl)methyl)piperidin-4-yl)methyl)carbamoyl)phenyl)amino)-5-fluoropyrimidin-4-yl)amino)benzamide]",luminescence value (Level),10 nM compound,B (B is 0.3 to 0.5)
same,luminescence value (Level),100 nM compound,A (A is <0.2)

# Source: patent publication US20260226071A1, “2, 4-DIANILINOPYRIMIDINE-BASED AURORA-A KINASE SELECTIVE DEGRADATION INDUCING COMPOUNDS” (UPPTHERA, INC., priority 2023, published 2026)
